Key:
h-GABA-A α5β3γ2 [1] = target: T1, h-GABA-A α5β3γ2 (Homo sapiens, UniProt P18507+P31644); assay: [3H]flumazenil competition binding assay, membranes of HEK293 cells expressing GABAA receptors; details: displacement of [3H]-Flumazenil 0.5 nM, HEK293 cells expressing human receptors, mean of two determinations; Table 1
How it was run: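 Receptor source: human α5β3γ2 transiently transfected into HEK293 cells, membranes in pH 7.5 Krebs-tris. Filtration through GF/C, then scintillation counting.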

h-GABA-A α5β3γ2 [2] = target: T1, h-GABA-A α5β3γ2; assay: Two-electrode voltage clamp electrophysiology in Xenopus laevis oocytes expressing GABAA receptors, modulation of GABA EC20 current; assay type: cell-based; design: host or cells: Xenopus laevis oocytes micro-injected with RNA transcripts of the subunits; details: Table 1; for Efficacy (GABA) %: % modulation of GABA EC20 = 100*(Fold increase-1); for Fold increase h-GABA-A α5β3γ2 oocyte: test compound at approx. 30 fold its Ki, GABA at EC20
How it was run: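 Modulation is reported as % of the GABA EC20 current, calculated as 100*(Fold increase−1) from the peak ratio between a second GABA response carrying compound (applied at roughly 30-fold Ki) and a preceding control response. Oocytes expressing human α5β3γ2 were clamped at −80 mV at room temperature, 3–5 days after injection.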

SMILES | Ki (h-GABA-A α5β3γ2 [1]) [nM] | Efficacy (GABA) % (h-GABA-A α5β3γ2 [2]) [%] | Fold increase h-GABA-A α5β3γ2 oocyte (h-GABA-A α5β3γ2 [2])
Cc1ccc(-c2noc(C)c2Cn2ncc(N3CC4(C[C@@H](OC(F)F)CO4)C3)cc2=O)nn1 [Example 242, 5-[(7R)-7-(difluoromethoxy)-5-oxa-2-azaspiro[3.4]octan-2-yl]-2-[[5-methyl-3-(6-methylpyridazin-3-yl)isoxazol-4-yl]methyl]pyridazin-3-one] | 3 | 80 | 1.8
Cc1ccc(-c2noc(CF)c2Cn2ncc(N3C[C@@H](C)O[C@@H](C)C3)cc2=O)cn1 [Example 243, 5-((2S,6R)-2,6-dimethylmorpholin-4-yl)-2-((5-(fluoromethyl)-3-(6-methylpyridin-3-yl)-1,2-oxazol-4-yl)methyl)pyridazin-3-one] | 4.6 | 173 | 2.73
Cc1onc(-c2ccc(C(F)(F)F)nc2)c1Cn1ncc(N2CC(OCC(F)F)C2)cc1=O [Example 244, 5-[3-(2,2-difluoroethoxy)azetidin-1-yl]-2-[[5-methyl-3-[6-(trifluoromethyl)-3-pyridyl]isoxazol-4-yl]methyl]pyridazin-3-one] | 38.8 | 140 | 2.4
Cc1onc(-c2ccc(Cl)nc2)c1Cn1ncc(N2CC(OCC(F)F)C2)cc1=O [Example 245, 2-((3-(6-chloropyridin-3-yl)-5-methylisoxazol-4-yl)methyl)-5-(3-(2,2-difluoroethoxy)azetidin-1-yl)pyridazin-3(2H)-one] | 18.7 | 106 | 2.06
Cc1ccc(-c2noc(C)c2Cn2ncc(N3CC4(C[C@H](OC(F)F)CO4)C3)cc2=O)nn1 [Example 246, 5-[(7S)-7-(difluoromethoxy)-5-oxa-2-azaspiro[3.4]octan-2-yl]-2-[[5-methyl-3-(6-methylpyridazin-3-yl)isoxazol-4-yl]methyl]pyridazin-3-one] | 3.4 | 130 | 2.3
Cc1ccc(-c2noc(C)c2Cn2ncc(N3CCC4(CCOCC4)CC3)cc2=O)nn1 [Example 247, 2-[[5-methyl-3-(6-methylpyridazin-3-yl)isoxazol-4-yl]methyl]-5-(3-oxa-9-azaspiro[5.5]undecan-9-yl)pyridazin-3-one] | 2.8 | 94 | 1.94
Cc1onc(-c2ccc(Cl)nc2)c1Cn1ncc(N2CCC3(CCOCC3)CC2)cc1=O [Example 248, 2-((3-(6-chloropyridin-3-yl)-5-methylisoxazol-4-yl)methyl)-5-(3-oxa-9-azaspiro[5.5]undecan-9-yl)pyridazin-3(2H)-one] | 24.6 | 107 | 2.07
Cc1onc(-c2ncc(C(F)(F)F)cn2)c1Cn1ncc(N2CC(OC3CC3)C2)cc1=O [Example 249, 5-(3-cyclopropoxyazetidin-1-yl)-2-((5-methyl-3-(5-(trifluoromethyl)pyrimidin-2-yl)isoxazol-4-yl)methyl)pyridazin-3(2H)-one] | 2.2 | 60 | 1.6
Cc1onc(-c2ncc(C(F)(F)F)cn2)c1Cn1ncc(N2CC3(C2)CC(F)(F)CO3)cc1=O [Example 250, 5-(7,7-difluoro-5-oxa-2-azaspiro[3.4]octan-2-yl)-2-((5-methyl-3-(5-(trifluoromethyl)pyrimidin-2-yl)isoxazol-4-yl)methyl)pyridazin-3(2H)-one] | 3.3 | 46 | 1.46
Cc1onc(-c2ccc(Cl)nc2)c1Cn1ncc(N2CC(OC(F)(F)F)C2)cc1=O [Example 251, 2-((3-(6-chloropyridin-3-yl)-5-methylisoxazol-4-yl)methyl)-5-(3-(trifluoromethoxy)azetidin-1-yl)pyridazin-3(2H)-one] | 16.6 | 83 | 1.83
COC1CN(c2cnn(Cc3c(-c4ccc(Cl)nn4)noc3C)c(=O)c2)C1 [Example 252, 2-((3-(6-chloropyridazin-3-yl)-5-methylisoxazol-4-yl)methyl)-5-(3-methoxyazetidin-1-yl)pyridazin-3(2H)-one] | 4.2 | 86 | 1.86
Cc1onc(-c2ccc(Cl)nc2)c1Cn1ncc(N2CC(OC3CCC3)C2)cc1=O [Example 253, 2-((3-(6-chloropyridin-3-yl)-5-methylisoxazol-4-yl)methyl)-5-(3-cyclobutoxyazetidin-1-yl)pyridazin-3(2H)-one] | 31 | 156 | 2.56
Cc1onc(-c2ccc(Cl)nc2)c1Cn1ncc(N2CC(OCC(F)(F)F)C2)cc1=O [Example 254, 2-((3-(6-chloropyridin-3-yl)-5-methylisoxazol-4-yl)methyl)-5-(3-(2,2,2-trifluoroethoxy)azetidin-1-yl)pyridazin-3(2H)-one] | 27.6 | 147 | 2.47
Cc1onc(-c2ccc(Cl)nc2)c1Cn1ncc(N2CC(OC(F)F)C2)cc1=O [Example 255, 2-((3-(6-chloropyridin-3-yl)-5-methylisoxazol-4-yl)methyl)-5-(3-(difluoromethoxy)azetidin-1-yl)pyridazin-3(2H)-one] | 14.6 | 99 | 1.99
Cc1onc(-c2ccc(Cl)nc2)c1Cn1ncc(N2CCC3(CCCO3)CC2)cc1=O [Example 256, 2-((3-(6-chloropyridin-3-yl)-5-methylisoxazol-4-yl)methyl)-5-(1-oxa-8-azaspiro[4.5]decan-8-yl)pyridazin-3(2H)-one] | 45.4 | 126 | 2.26
Cc1onc(-c2ccc(Cl)nc2)c1Cn1ncc(N2CC3(CCOCC3)C2)cc1=O [Example 257, 2-((3-(6-chloropyridin-3-yl)-5-methylisoxazol-4-yl)methyl)-5-(7-oxa-2-azaspiro[3.5]nonan-2-yl)pyridazin-3(2H)-one] | 36.6 | 108 | 2.08
Cc1onc(-c2ccc(Cl)nc2)c1Cn1ncc(N2CCC3(CC2)COC3)cc1=O [Example 258, 2-((3-(6-chloropyridin-3-yl)-5-methylisoxazol-4-yl)methyl)-5-(2-oxa-7-azaspiro[3.5]nonan-7-yl)pyridazin-3(2H)-one] | 34.3 | 126 | 2.26
Cc1ccc(-c2noc(C3CC3)c2Cn2ncc(N3CC4(CCCCO4)C3)cc2=O)nn1 [Example 259, 2-[[5-cyclopropyl-3-(6-methylpyridazin-3-yl)isoxazol-4-yl]methyl]-5-(5-oxa-2-azaspiro[3.5]nonan-2-yl)pyridazin-3-one] | 36.2 | 193 | 2.93
Cc1onc(-c2ccc(C3CC3)nc2)c1Cn1ncc(N2CC3(C2)CC(F)(F)CO3)cc1=O [Example 260, 2-((3-(6-cyclopropylpyridin-3-yl)-5-methylisoxazol-4-yl)methyl)-5-(7,7-difluoro-5-oxa-2-azaspiro[3.4]octan-2-yl)pyridazin-3(2H)-one] | 3.7 | 123 | 2.23
Cc1ccc(-c2noc(C)c2Cn2ncc(N3CC[C@@H](OC(C)(C)C)C3)cc2=O)nn1 [Example 261, 5-[(3R)-3-tert-butoxypyrrolidin-1-yl]-2-[[5-methyl-3-(6-methylpyridazin-3-yl)isoxazol-4-yl]methyl]pyridazin-3-one] | 3.6 | 77 | 1.77
COC1(C)CCN(c2cnn(Cc3c(-c4ccc(Cl)nc4)noc3C)c(=O)c2)CC1 [Example 262, 2-((3-(6-chloropyridin-3-yl)-5-methylisoxazol-4-yl)methyl)-5-(4-methoxy-4-methylpiperidin-1-yl)pyridazin-3(2H)-one] | 35.5 | 216 | 3.16
Cc1onc(-c2ccc(Cl)nc2)c1Cn1ncc(N2CCN(c3ccnnc3)CC2)cc1=O [Example 263, 2-((3-(6-chloropyridin-3-yl)-5-methylisoxazol-4-yl)methyl)-5-(4-(pyridazin-4-yl)piperazin-1-yl)pyridazin-3(2H)-one] | 4.2 | 205 | 3.05
Cc1ccc(-c2noc(C)c2Cn2ncc(N3CC(OC(C)(C)C(F)(F)F)C3)cc2=O)nn1 [Example 264, 2-[[5-methyl-3-(6-methylpyridazin-3-yl)isoxazol-4-yl]methyl]-5-[3-(2,2,2-trifluoro-1,1-dimethyl-ethoxy)azetidin-1-yl]pyridazin-3-one] | 3 | 93 | 1.93
CCOC1CN(c2cnn(Cc3c(-c4ccc(C)nc4)noc3C)c(=O)c2Cl)C1 [Example 268, 4-chloro-5-(3-ethoxyazetidin-1-yl)-2-((5-methyl-3-(6-methylpyridin-3-yl)isoxazol-4-yl)methyl)pyridazin-3(2H)-one] | 16.6 | 184 | 2.84
